# Measured values taken from US5866575A, “Method of inhibiting HIV integrase” (Lundblad; Leif J. I., priority 1994, dated 1999).
# Key:
# rats = assay: Acute toxicity; assay type: in vivo
# [1] = General toxicity after repeated administration, rats; conditions: rat, in vivo, iv, for 28 days, read-out: NOEL (no observable effect level) i.v.
# Source text: (§1) General toxicity after repeated administration NOEL (no observable effect level)
# [2] = General toxicity after repeated administration, rabbits; conditions: rabbit, in vivo, topical or ocular, dermal, for 28 days, repeated administration (except for local toxicity), read-out: NOEL (no observable effect level) dermal
# Source text: as §1
smiles,measurement,setting,value
"Cc1cc2nc3c4ccccc4n(CCN(C)C)c3nc2cc1C [compound II, 2,3-dimethyl-6-(N,N-dimethylaminoethyl)-6H-indoloquinoxaline]",LD i.v.,rats; i.v.,> 100 mg/kg
same,LD p.o.,rats; p.o.,> 800 mg/kg
same,NOAEL at 672 h,[1],12.5 mg/kg
same,NOAEL at 672 h,[2],200 mg/kg
